# Experiments:
# [1] = Chemical stability assessed as compound decomposition in double distilled water at 40 ug/ml at pH 7.4 after 24 hrs by HPLC analysis; assay type: physicochemical; conditions: buffer, pH 7.4, 24 h
# Escherichia coli [2] = test: Antibacterial activity against Escherichia coli K-12 BW25113 measured every 10 mins after 24 hrs in presence of biotin; assay type: functional
# Escherichia coli [3] = test: Antibacterial activity against Escherichia coli K-12 BW25113 measured every 10 mins after 24 hrs in absence of biotin; assay type: functional
# Escherichia coli [4] = test: Inhibition of Escherichia coli His-tagged bioA at 1 uM using KAPA as substrate after 20 mins in presence of SAM relative to control
Compound,Stability [1],MIC (Escherichia coli [2]) [µg/mL],MIC (Escherichia coli [3]) [µg/mL],inhibition (Escherichia coli [4]) [%]
O=[N+]([O-])/C=C/c1cccc(F)c1,Unstable,,,
NNC(=O)CSc1ccccc1[N+](=O)[O-],,> 256,8,100
O=C1C=CC(=O)N1Cc1cccs1,Unstable,,,
S=C1SCN(Cc2cccnc2)CN1Cc1cccnc1,Unstable,,,

# More lines, now with the values ahead:
Stability [1],MIC (Escherichia coli [2]) [µg/mL],MIC (Escherichia coli [3]) [µg/mL],inhibition (Escherichia coli [4]) [%],Compound
,> 256,16,63,NNC(=O)CSc1ccccc1Cl
,64,64,50,CSCC(=O)NN
,256,256,20,NNC(=O)CS
,128,128,7,CC(=O)NN
,> 256,16,81,Cc1ccccc1SCC(=O)NN

# Source: ChEMBL document CHEMBL3867459, “A cell-based approach to characterize antimicrobial compounds through kinetic dose response” (Bioorg Med Chem, 2016)
